Experimental data published in ChEMBL document CHEMBL4002643, “Tubulin-binding dibenz[c,e]oxepines: Part 2. Structural variation and biological evaluation as tumour vasculature disrupting agents” (Bioorg Med Chem, 2017).

How the values were obtained:
DLD-1 [1] = experiment: Vascular disrupting activity in human DLD1 cells xenografted in Balb/C immunodeficient nude mouse assessed as induction of necrosis by measuring necrotic area at 400 mg/kg, iv at 24 hrs post dose by haematoxylin and eosin staining-based assay (reference value: 19 +/- 9.6%); assay type: functional
DLD-1 [2] = experiment: Induction of vascular shutdown in human DLD1 cells xenografted in Balb/C immunodeficient nude mouse assessed as vascular element counts at 400 mg/kg, iv at 4 hrs post dose by […] dye-based microscopic method (reference value: 3.73 +/- 3.1%); assay type: functional
DLD-1 [3] = experiment: Vascular disrupting activity in human DLD1 cells xenografted in Balb/C immunodeficient nude mouse assessed as induction of necrosis by measuring necrotic area at 400 mg/kg, iv at 1 hr post dose by haematoxylin and eosin staining-based assay (reference value: 19 +/- 9.6%); assay type: functional
DLD-1 [4] = experiment: Vascular disrupting activity in human DLD1 cells xenografted in Balb/C immunodeficient nude mouse assessed as induction of necrosis by measuring necrotic area at 400 mg/kg, iv at 4 hrs post dose by haematoxylin and eosin staining-based assay (reference value: 19 +/- 9.6%); assay type: functional
DLD-1 [5] = experiment: Induction of vascular shutdown in human DLD1 cells xenografted in Balb/C immunodeficient nude mouse at 400 mg/kg, iv by […] dye-based microscopic method; assay type: functional, organism-based; conditions: TDE = time-dependent effect
DLD-1 [6] = experiment: Induction of vascular shutdown in human DLD1 cells xenografted in Balb/C immunodeficient nude mouse assessed as vascular element counts at 400 mg/kg, iv at 24 hrs post dose by […] dye-based microscopic method (reference value: 3.73 +/- 3.1%); assay type: functional
DLD-1 [7] = experiment: Induction of vascular shutdown in human DLD1 cells xenografted in Balb/C immunodeficient nude mouse assessed as vascular element counts at 400 mg/kg, iv at 1 hr post dose by […] dye-based microscopic method (reference value: 3.73 +/- 3.1%); assay type: functional
[8] = Inhibition of porcine tubulin assembly measured for 30 mins by UV/visible spectrophotometric method; parameters: species or system Sus scrofa
K562 [9] = experiment: Cytotoxicity against human K562 cells assessed as growth inhibition after 5 days by MTT assay; assay type: functional, cell-based; conditions: K562, 120 h
T47D = experiment: Cytotoxicity against human T47D cells assessed as growth inhibition after 48 hrs by SRB assay; assay type: functional
BT-549 = experiment: Cytotoxicity against human BT549 cells assessed as growth inhibition after 48 hrs by SRB assay; assay type: functional; conditions: BT-549, 48 h
786-0 = experiment: Cytotoxicity against human 786-0 cells assessed as growth inhibition after 48 hrs by SRB assay; assay type: functional; conditions: 786-0, 48 h
OVCAR-3 = experiment: Cytotoxicity against human OVCAR3 cells assessed as growth inhibition after 48 hrs by SRB assay; assay type: functional; conditions: OVCAR-3, 48 h
UACC-257 = experiment: Cytotoxicity against human UACC257 cells assessed as growth inhibition after 48 hrs by SRB assay; assay type: functional; conditions: UACC-257, 48 h
A549 = experiment: Cytotoxicity against human A549 cells assessed as growth inhibition after 48 hrs by SRB assay; assay type: functional; conditions: A549, 48 h
HCC 2998 = experiment: Cytotoxicity against human HCC2998 cells assessed as growth inhibition after 48 hrs by SRB assay; assay type: functional; conditions: HCC 2998, 48 h
MOLT-4 = experiment: Cytotoxicity against human MOLT4 cells assessed as growth inhibition after 48 hrs by SRB assay; assay type: functional; conditions: MOLT-4, 48 h
LOX IMVI = experiment: Cytotoxicity against human LOXIMVI cells assessed as growth inhibition after 48 hrs by SRB assay; assay type: functional
UACC-62 = experiment: Cytotoxicity against human UACC62 cells assessed as growth inhibition after 48 hrs by SRB assay; assay type: functional; conditions: UACC-62, 48 h
RPMI-8226 = experiment: Cytotoxicity against human RPMI8226 cells assessed as growth inhibition after 48 hrs by SRB assay; assay type: functional; conditions: RPMI-8226, 48 h
COLO 205 = experiment: Cytotoxicity against human COLO205 cells assessed as growth inhibition after 48 hrs by SRB assay; assay type: functional; conditions: COLO 205, 48 h
NCI-H322M = experiment: Cytotoxicity against human NCI-H322M cells assessed as growth inhibition after 48 hrs by SRB assay; assay type: functional
HCT-15 = experiment: Cytotoxicity against human HCT15 cells assessed as growth inhibition after 48 hrs by SRB assay; assay type: functional; conditions: HCT-15, 48 h
SNB-19 = experiment: Cytotoxicity against human SNB19 cells assessed as growth inhibition after 48 hrs by SRB assay; assay type: functional; conditions: SNB-19, 48 h
NCI-H460 = experiment: Cytotoxicity against human NCI-H460 cells assessed as growth inhibition after 48 hrs by SRB assay; assay type: functional; conditions: NCI-H460, 48 h
MDA-MB-468 = experiment: Cytotoxicity against human MDA-MB-468 cells assessed as growth inhibition after 48 hrs by SRB assay; assay type: functional; conditions: MDA-MB-468, 48 h
SNB-75 = experiment: Cytotoxicity against human SNB75 cells assessed as growth inhibition after 48 hrs by SRB assay; assay type: functional; conditions: SNB-75, 48 h
SW-620 = experiment: Cytotoxicity against human SW620 cells assessed as growth inhibition after 48 hrs by SRB assay; assay type: functional; conditions: SW-620, 48 h
PC-3 = experiment: Cytotoxicity against human PC3 cells assessed as growth inhibition after 48 hrs by SRB assay; assay type: functional; conditions: PC-3, 48 h
SF-539 = experiment: Cytotoxicity against human SF539 cells assessed as growth inhibition after 48 hrs by SRB assay; assay type: functional; conditions: SF-539, 48 h
CAKI-1 = experiment: Cytotoxicity against human Caki1 cells assessed as growth inhibition after 48 hrs by SRB assay; assay type: functional; conditions: CAKI-1, 48 h
NCI-H226 = experiment: Cytotoxicity against human NCI-H226 cells assessed as growth inhibition after 48 hrs by SRB assay; assay type: functional; conditions: NCI-H226, 48 h
HOP-92 = experiment: Cytotoxicity against human HOP92 cells assessed as growth inhibition after 48 hrs by SRB assay; assay type: functional; conditions: HOP-92, 48 h
HCT-116 = experiment: Cytotoxicity against human HCT116 cells assessed as growth inhibition after 48 hrs by SRB assay; assay type: functional; conditions: HCT-116, 48 h
TK-10 = experiment: Cytotoxicity against human TK10 cells assessed as growth inhibition after 48 hrs by SRB assay; assay type: functional; conditions: TK-10, 48 h
IGROV-1 = experiment: Cytotoxicity against human IGROV1 cells assessed as growth inhibition after 48 hrs by SRB assay; assay type: functional; conditions: IGROV-1, 48 h
DU-145 = experiment: Cytotoxicity against human DU145 cells assessed as growth inhibition after 48 hrs by SRB assay; assay type: functional; conditions: DU-145, 48 h
M14 = experiment: Cytotoxicity against human M14 cells assessed as growth inhibition after 48 hrs by SRB assay; assay type: functional; conditions: M14, 48 h
SR = experiment: Cytotoxicity against human SR cells assessed as growth inhibition after 48 hrs by SRB assay; assay type: functional
MDA-MB-435 = experiment: Cytotoxicity against human MDA-MB-435 cells assessed as growth inhibition after 48 hrs by SRB assay; assay type: functional; conditions: MDA-MB-435, 48 h
CCRF-CEM = experiment: Cytotoxicity against human CCRF-CEM cells assessed as growth inhibition after 48 hrs by SRB assay; assay type: functional
HL-60(TB) = experiment: Cytotoxicity against human HL-60(TB) cells assessed as growth inhibition after 48 hrs by SRB assay; assay type: functional; conditions: HL-60, 48 h
SK-MEL-5 = experiment: Cytotoxicity against human SK-MEL-5 cells assessed as growth inhibition after 48 hrs by SRB assay; assay type: functional; conditions: SK-MEL-5, 48 h
MCF7 = experiment: Cytotoxicity against human MCF7 cells assessed as growth inhibition after 48 hrs by SRB assay; assay type: functional; conditions: MCF7, 48 h
Malme-3M = experiment: Cytotoxicity against human MALME-3M cells assessed as growth inhibition after 48 hrs by SRB assay; assay type: functional
EKVX = experiment: Cytotoxicity against human EKVX cells assessed as growth inhibition after 48 hrs by SRB assay; assay type: functional
A498 = experiment: Cytotoxicity against human A498 cells assessed as growth inhibition after 48 hrs by SRB assay; assay type: functional; conditions: A498, 48 h
HOP-62 = experiment: Cytotoxicity against human HOP62 cells assessed as growth inhibition after 48 hrs by SRB assay; assay type: functional; conditions: HOP-62, 48 h
SK-MEL-2 = experiment: Cytotoxicity against human SK-MEL-2 cells assessed as growth inhibition after 48 hrs by SRB assay; assay type: functional; conditions: SK-MEL-2, 48 h
UO-31 = experiment: Cytotoxicity against human UO31 cells assessed as growth inhibition after 48 hrs by SRB assay; assay type: functional; conditions: UO-31, 48 h
SN12C = experiment: Cytotoxicity against human SN12C cells assessed as growth inhibition after 48 hrs by SRB assay; assay type: functional
NCI-H522 = experiment: Cytotoxicity against human NCI-H522 cells assessed as growth inhibition after 48 hrs by SRB assay; assay type: functional; conditions: NCI-H522, 48 h
OVCAR-8 = experiment: Cytotoxicity against human OVCAR8 cells assessed as growth inhibition after 48 hrs by SRB assay; assay type: functional; conditions: OVCAR-8, 48 h
NCI/ADR-RES = experiment: Cytotoxicity against human NCI-ADR-RES cells assessed as growth inhibition after 48 hrs by SRB assay; assay type: functional
RXF 393 = experiment: Cytotoxicity against human RXF393 cells assessed as growth inhibition after 48 hrs by SRB assay; assay type: functional; conditions: RXF 393, 48 h
SF-295 = experiment: Cytotoxicity against human SF295 cells assessed as growth inhibition after 48 hrs by SRB assay; assay type: functional; conditions: SF-295, 48 h
OVCAR-4 = experiment: Cytotoxicity against human OVCAR4 cells assessed as growth inhibition after 48 hrs by SRB assay; assay type: functional; conditions: OVCAR-4, 48 h
K562 [10] = experiment: Cytotoxicity against human K562 cells assessed as growth inhibition after 48 hrs by SRB assay; assay type: functional; conditions: K562, 48 h
KM12 = experiment: Cytotoxicity against human KM12 cells assessed as growth inhibition after 48 hrs by SRB assay; assay type: functional; conditions: KM12, 48 h
SF-268 = experiment: Cytotoxicity against human SF268 cells assessed as growth inhibition after 48 hrs by SRB assay; assay type: functional; conditions: SF-268, 48 h
NCI-H23 = experiment: Cytotoxicity against human NCI-H23 cells assessed as growth inhibition after 48 hrs by SRB assay; assay type: functional; conditions: NCI-H23, 48 h
U-251 = experiment: Cytotoxicity against human U251 cells assessed as growth inhibition after 48 hrs by SRB assay; assay type: functional; conditions: U-251, 48 h
SK-OV-3 = experiment: Cytotoxicity against human SKOV3 cells assessed as growth inhibition after 48 hrs by SRB assay; assay type: functional; conditions: SK-OV-3, 48 h
MDA-MB-231 = experiment: Cytotoxicity against human MDA-MB-231 cells assessed as growth inhibition after 48 hrs by SRB assay; assay type: functional; conditions: MDA-MB-231, 48 h
Hs-578T = experiment: Cytotoxicity against human Hs 578T cells assessed as growth inhibition after 48 hrs by SRB assay; assay type: functional

COc1cc2c(c(OC)c1OC)-c1ccc(OP(=O)([O-])[O-])cc1[C@@H](NC(C)=O)CC2.[Na+].[Na+]
Activity (DLD-1 [1]): 91%
Activity (DLD-1 [2]): 0.12%
Activity (DLD-1 [3]): 23.2%
Activity (DLD-1 [4]): 22.3%
Activity (DLD-1 [5]): Tde
Activity (DLD-1 [6]): 0.42%
Activity (DLD-1 [7]): 0.03%

COc1ccc2c(c1OS(=O)(=O)C(F)(F)F)COCc1cc(OC)c(OC)c(OC)c1-2
IC50 [8]: 15000 nM
IC50 (K562 [9]): 250 nM

COc1cc2c(c(OC)c1OC)-c1cc3c(cc1COC2)OCO3
GI50 (T47D): 25700 nM
GI50 (BT-549): 540 nM
GI50 (786-0): 500 nM
GI50 (OVCAR-3): 250 nM
GI50 (UACC-257): 3390 nM
GI50 (A549): 440 nM
IC50 [8]: > 10000 nM
GI50 (HCC 2998): 490 nM
GI50 (MOLT-4): 470 nM
GI50 (LOX IMVI): 870 nM
GI50 (UACC-62): 790 nM
GI50 (RPMI-8226): 500 nM
GI50 (COLO 205): 340 nM
GI50 (NCI-H322M): 2000 nM
GI50 (HCT-15): 480 nM
GI50 (SNB-19): 680 nM
GI50 (NCI-H460): 380 nM
GI50 (MDA-MB-468): 170 nM
GI50 (SNB-75): 460 nM
GI50 (SW-620): 400 nM
GI50 (PC-3): 540 nM
GI50 (SF-539): 350 nM
GI50 (CAKI-1): 56200 nM
GI50 (NCI-H226): 2750 nM
GI50 (HOP-92): 7080 nM
GI50 (HCT-116): 370 nM
GI50 (TK-10): 5130 nM
GI50 (IGROV-1): 950 nM
GI50 (DU-145): 370 nM
GI50 (M14): 230 nM
GI50 (SR): 170 nM
GI50 (MDA-MB-435): 50 nM
GI50 (CCRF-CEM): 350 nM
GI50 (HL-60(TB)): 390 nM
IC50 (K562 [9]): 85000 nM
GI50 (SK-MEL-5): 210 nM
GI50 (MCF7): 400 nM
GI50 (Malme-3M): > 100000 nM
GI50 (EKVX): 780 nM
GI50 (A498): 450 nM
GI50 (HOP-62): 690 nM
GI50 (SK-MEL-2): 560 nM
GI50 (UO-31): 3980 nM
GI50 (SN12C): 1050 nM
GI50 (NCI-H522): 390 nM
GI50 (OVCAR-8): 520 nM
GI50 (NCI/ADR-RES): 360 nM
GI50 (RXF 393): 200 nM
GI50 (SF-295): 330 nM
GI50 (OVCAR-4): 2190 nM
GI50 (K562 [10]): 210 nM
GI50 (KM12): 360 nM
GI50 (SF-268): 1320 nM
GI50 (NCI-H23): 790 nM
GI50 (U-251): 480 nM
GI50 (SK-OV-3): 470 nM
GI50 (MDA-MB-231): 1200 nM
GI50 (Hs-578T): 430 nM
